Measurements taken from patent publication US12655101B2, “Small molecules with antibacterial activity” (NEW MEXICO TECH UNIVERSITY RESEARCH PARK CORPORATION, priority 2021, dated 2026).
Converted amounts (≈) assume the structure as drawn. Read-outs that look alike come from different tables or passages of the source.

Tests used:
Format in all cases: cell-based
A. baumannii ATCC 15151 [1] = assay: Filamentation with ciprofloxacin and Compound 25 on A. baumannii; conditions: 18 hours
Procedure: A. baumannii ATCC 15151: […] The culture tubes were incubated for 18 hours at 37° C. After 18 hours incubation, took 3 μL of cells from each well and plated on microscope slide to observe the following: […]

S. aureus = assay: Evolution of resistance in S. aureus over 32 days; conditions: Staphylococcus aureus
Description: Over a period of 32 days, S. aureus cells were exposed to sub-inhibitory concentrations of the indicated compound, norfloxacin, or oxacillin and sub-cultured at the newly emerged, sub-inhibitory concentration.

[2] = test system: UmuC (error-prone polymerase); assay: UmuC gene expression by rtPCR in S. aureus; conditions: sub-inhibitory norfloxacin
Description: RecA and error-prone polymerase subunit UmuC transcripts were quantitatively measured using rtPCR in S. aureus. S. aureus was challenged with sub-inhibitory concentrations of DNA-damaging norfloxacin.

[3] = test system: A. baumannii ATCC BAA-1797; assay: MIC on A. baumannii ATCC BAA-1797; conditions: Acinetobacter baumannii
Procedure: A. baumannii: A. baumannii ATCC BAA-1797 was grown from a glycerol stock by placing a small volume of cells onto a MHA plate. The MHA plate was incubated overnight at 37° C. A single colony was used to inoculate MHB to obtain a bacterial broth suspension. The MHB broth suspension was grown at 37° C. on a rotary shaking incubator (100 rpm) for 12 hours. The bacterial cell concentration was adjusted to ˜5×10^5 CFU/mL in MHB or MHB+10%, 20% or 40% FBS using OD at 595 nm. 500 μL aliquots of the adjusted bacterial cell suspension were placed into borosilicate glass tubes. The cell suspensions were treated with a compound of interest, and the treatments were serially diluted two-fold. The culture tubes were incubated for 18 hours at 37° C. Efficacy was either assessed visually or by adding 10% v/v MTT (5 mg/mL stock) after the 18 hour incubation period. The cell suspensions were subsequently incubated for 10 minutes to allow the MTT reagent to carry out the colorimetric reaction. The OD was read at 595 nm.

A. baumannii ATCC 15151 [4] = assay: DNA degradation (agarose gel), drug-sensitive strain; conditions: 1.5% H2O2, 10 μg/mL ciprofloxacin, 100 μM Compound 25; 3 hours
E. coli pUC18 = assay: Nitrocefin β-lactamase assay (outer membrane disruption); conditions: 10 μM melittin; 10 μg/mL PME; 6, 12, 24 μM Compound 25 and 26; 100 μM Compound 27; 50 μM Compound 15; 30 minutes
Procedure: E. coli pUC18 was grown from a glycerol stock by placing a small volume of cells onto a MHA plate. The MHA plate was incubated overnight at 37° C. A single colony was subsequently used to inoculate MHB+100 μg/mL ampicillin to obtain a bacterial broth suspension. The MHB broth suspension was grown at 37° C. on a rotary shaking incubator (100 rpm) for 12 hours. The cells were washed 3× by centrifuging and washing with 1 mL medium 200. The washed bacterial cell concentration was adjusted to ˜1×10^7 CFU/mL in medium 200 using OD at 595 nm. The cells were treated cells with 10 μM melittin; 6, 12, 24 μM Compound 25; 6 μM, 12 μM, 24 μM Compound 26; 100 μM Compound 27; 50 μM Compound 15; and 10 μg/mL PME. The cells were incubated at 37° C. for 30 minutes; added 50 μM nitrocefin and incubated 10 minutes at 37° C.
pUC18 E. coli carry an ampicillin resistance gene and produce β-lactamase.

E. coli pNMT41 = assay: 6-chloro-4-methyl-umbelliferyl-β-D-glucuronide assay for beta-glucuronidase (inner membrane disruption); conditions: 10 μg/mL PME
Procedure: E. coli pNMT 41 was grown from a glycerol stock by placing a small volume of cells onto a MHA plate. The MHA plate was incubated overnight at 37° C. A single colony was subsequently used to inoculate MHB+100 μg/mL ampicillin to obtain a bacterial broth suspension. The MHB broth suspension was grown at 37° C. on a rotary shaking incubator (100 rpm) for 12 hours. The bacterial cell concentration was adjusted to ˜1×10^7 CFU/mL in MHB using OD at 595 nm. The cells were washed 3× by spinning by centrifuge and washing with 500 μL medium 200. The cells were resuspended in 7 mL medium 200. The cells were treated with 10 μM melittin, 6, 12, 24, and 100 μM Compound 25, and 10 μg/mL PME. The cells were incubated at 37° C. for 30 minutes. 1 μM umbelliferyl was added, and the cells were incubated further for 10 minutes at 37° C.
The cells were then incubated at 37° C. for 45 minutes. 1 μM umbelliferyl was added, and the cells were incubated further for 10 minutes at 37° C.

[5] = test system: A. baumannii ATCC BAA-1797; assay: Colony counts of A. baumannii ATCC BAA-1797 treated with 4xMIC for 16 hours; conditions: 1 μg/mL PME, 1 mM PAO, compounds at 4xMIC
[6] = 10 μM melittin, 6, 12, 24, 100 μM Compound 25, 30 minutes

Compound: O=C(O)c1cn(C2CC2)c2cc(N3CCNCC3)c(F)cc2c1=O [Ciprofloxacin, reference compound]
- cell morphology and growth (A. baumannii ATCC 15151 [1]; 125 ng/mL ciprofloxacin): largely elongated in morphology and growth inhibition was observed
- cell morphology and growth (A. baumannii ATCC 15151 [1]; single agent: 50 ng/mL ciprofloxacin or […] Compound 25): slightly elongated and some growth inhibition was observed

Compound: COc1ccc(/N=N/c2c(-c3ccc(OC)cc3)[nH]c3ccccc23)cc1 [Compound 46, (E)-2-(4-methoxyphenyl)-3-((4-methoxyphenyl)diazenyl)-1H-indole]
- MIC (S. aureus; 0 h, read-out: Initial MIC Day 0): 1 to 2 µM (≈ 0.357 to 0.715 µg/mL)
- MIC (S. aureus; read-out: Final MIC Day 32): 1 to 2 µM (≈ 0.357 to 0.715 µg/mL)
- UmuC (error-prone polymerase) gene expression [2]: transcriptional inhibition
- MIC ([3]; ATCCBAA1797, 18 h, read-out: MIC in the presence of 40% FBS, A. baumannii ATCC BAA-1797, 40% FBS): > 100 µM
- MIC ([3]; ATCCBAA1797, A. baumannii ATCC BAA-1797, absence of serum, read-out: MIC in the absence of serum): > 100 µM

Compound: OO [Compound H2O2, hydrogen peroxide, reference compound]
- DNA degradation (A. baumannii ATCC 15151 [4]): degraded DNA completely

Compound: CC[C@H](C)[C@H](NC(=O)CN)C(=O)NCC(=O)N[C@@H](C)C(=O)N[C@H](C(=O)N[C@@H](CC(C)C)C(=O)N[C@@H](CCCCN)C(=O)N[C@H](C(=O)N[C@@H](CC(C)C)C(=O)N[C@H](C(=O)N[C@H](C(=O)NCC(=O)N[C@@H](CC(C)C)C(=O)N1CCC[C@H]1C(=O)N[C@@H](C)C(=O)N[C@@H](CC(C)C)C(=O)N[C@H](C(=O)N[C@@H](CO)C(=O)N[C@@H](Cc1c[nH]c2ccccc12)C(=O)N[C@H](C(=O)N[C@@H](CCCCN)C(=O)N[C@@H](CCCNC(=N)N)C(=O)N[C@@H](CCCCN)C(=O)N[C@@H](CCCNC(=N)N)C(=O)N[C@@H](CCC(N)=O)C(=O)N[C@@H](CCC(N)=O)C(N)=O)[C@@H](C)CC)[C@@H](C)CC)[C@@H](C)O)[C@@H](C)O)C(C)C)C(C)C [Melittin, melittin]
- outer membrane disruption (β-lactamase leakage, nitrocefin colour) (E. coli pUC18): high concentration of β-lactamase in the supernatant
- inner membrane disruption (GUS fluorescence) (E. coli pNMT41; [6]): disrupt inner membrane

Compound: polymyxin E [PME]
- outer membrane disruption (β-lactamase leakage, nitrocefin colour) (E. coli pUC18): high concentration of β-lactamase in the supernatant
- cell viability after 16 hours of treatment [5]: cells were still viable
- inner membrane disruption (GUS fluorescence) (E. coli pNMT41; [6]): disrupt inner membrane
- inner membrane disruption (GUS fluorescence) (E. coli pNMT41; separate experiment, 12.5 μM Compound 14, 45 minutes): disrupts inner membrane
